Results taken from patent US5280125A, “Chemical process for the preparation of 3-alkylated indole” (Imperial Chemical Industries PLC, priority 1990, dated 1994).

Tests used:
LTC4, LTD4 and/or LTE4 = assay: in vitro leukotriene antagonist tests (guinea-pig tracheal strip preparation or receptor-ligand binding assay); conditions: in one of the above in vitro tests
leukotriene LTD4 = assay: guinea-pig aerosol test (LTD4 aerosol challenge, onset of dyspnea); type: in vivo
Method: According to this procedure, guinea-pigs are pre-dosed with test compound as a solution in poly(ethylene glycol) (generally 1 hour) before an aerosol challenge of leukotriene LTD4 (starting with 2 ml of a 30 microgram/ml solution) and the effect of the test compound on the average time of leukotriene initiated change in breathing pattern (such as onset of dyspnea) recorded and compared with that in undosed, control guinea-pigs. Percent protection engendered by a test compound was calculated from the time delay to the onset of dyspnea compared to that for control animals.

| Structure (SMILES) | concentration showing statistically significant activity as LTC4, LTD4 and/or LTE4 antagonist (LTC4, LTD4 and/or LTE4) | ED50 (leukotriene LTD4; Cavia porcellus, 1 h, oral administration, protection against LTD4 aerosol-induced dyspnea) | untoward side-effects (leukotriene LTD4; oral, at several multiples of the minimum effective dose) |
| --- | --- | --- | --- |
| COc1cc(C(=O)NS(=O)(=O)c2ccccc2C)ccc1Cc1cn(C)c2ccc(C(=O)NCC(C)CC(F)(F)F)cc12 (stereo not drawn) [compound of formula I, 4-[5-(N-[4,4,4-trifluoro-2-methylbutyl]carbamoyl)-1-methylindol-3-ylmethyl]-3-methoxy-N-o-tolylsulphonylbenzamide] | ≤ 10^-8 M |  |  |
| COc1cc(C(=O)NS(=O)(=O)c2ccccc2C)ccc1Cc1cn(C)c2ccc(C(=O)NC[C@H](C)CC(F)(F)F)cc12 [compound of formula I substantially in the form of the (R)-enantiomer, (R)-4-[5-(N-[4,4,4-trifluoro-2-methylbutyl]carbamoyl)-1-methylindol-3-yl-methyl]-3-methoxy-N-o-tolylsulphonylbenzamide] |  | 1.1 µmol/kg | without any indication of untoward side-effects |
